Among the data in PubChem BioAssay (NCI) are TGI and GI50 values, retold here.

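1) Cells in 96-well plates. 2) Compound, 48 h, 5 concentrations. 3) Linear interpolation between surrounding doses. 4) Unreached endpoint = highest concentration. At the GI50, growth is halved. The concentration for full growth arrest is given as TGI.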

For one assay, the system named is A549 NSCLC. The assay can be described thus: NCI anticancer screen, dose series, 48 h.
In the case of `O=C(O)CCc1coc2ccc(O)cc12`, the TGI is over 100 µM.

For the compound `Cc1ccc(N=Nc2ccc(N(CCC#N)CCC#N)cc2C)c(Br)c1`, the TGI was over 100 µM.

Compound `CC(C)C/C(CC(=O)CCC(=O)Nc1ccccc1[N+](=O)[O-])=N\NC(=O)c1cc2ccccc2cc1O` yielded a TGI of over 100 µM.

The compound `O=C(N/C(=C\c1ccc(/C=C(\NC(=O)c2ccccc2)c2nc3cc([N+](=O)[O-])ccc3[nH]2)cc1)c1nc2cc([N+](=O)[O-])ccc2[nH]1)c1ccccc1` showed a TGI of over 100 µM.

`COC(CN1C(=O)c2cccc3cccc(c23)C1=O)OC` displayed a TGI of over 100 µM.

As to `CCCCCCCCCCCCCCCCCC(CCCCCCCCCCCCCCCCC)OP(=O)(O)O`, the TGI is over 100 µM.

With `COC1(OC)CCC2C1C1CCC(OC)(OC)C21` (stereo unspecified), the TGI is over 50 µM.

Compound `CN1C(=O)C(C)(C)C2(SC(C)(C)C2(C)C)N(C)C1=S` (stereo unspecified) displayed a TGI of over 100 µM.

`COc1cc2c(cc1OC)-c1c3cc(O)ccc3nn[n+]1CC2` had a TGI of over 100 µM.

Regarding `Cc1nc2ccccc2c(N)c1-c1cc(C)c2c(C)nc3ccccc3c2n1`, the GI50 is 0.243 µM and the TGI is 0.681 µM.

Regarding `N#CCCN(CCC#N)c1ccc(/C=C2\N=C(c3cc([N+](=O)[O-])ccc3Cl)OC2=O)cc1`, the TGI is over 100 µM.

For the compound `COc1ccccc1C12OC(=O)C1(C)Oc1ccccc1C2=O` (stereo unspecified), the TGI is over 100 µM.

As for `NC(Cc1c[nH]c2c(O)cccc12)C(=O)O` (stereo unspecified), the GI50 is over 100 µM and the TGI is over 100 µM.

Take `O=C1C2C(C(=O)N1OS(=O)(=O)c1ccccc1)N(Cc1ccccc1)C(=O)N2Cc1ccccc1` (stereo unspecified): the TGI is over 100 µM.

`O=C(COc1ccc(Br)cc1Br)N1N=C(c2ccc([N+](=O)[O-])o2)CC1(O)c1ccccc1` (stereo unspecified) came in with a TGI of 72.2 µM.

Take `COc1cc(-c2nn(-c3ccc(NC(=O)c4ccc(Cl)c(C(F)(F)F)c4)cc3)cc2-c2ccncc2)ccc1Cl`: the GI50 is 4.94 µM and the TGI was over 100 µM.

Take `CCCCOC(=O)C1OC(O[C@H]2CCC3(C)C(CCC4(C)C3CC=C3C5CC(C)(C)CCC5(C(=O)O)CC[C@]34C)C2(C)C)C(OC2OC(CO)C(O)C(O)C2O)C(OC2OC(CO)C(O)C(O)C2O)C1O` (stereo partly specified): the GI50 is 34.1 µM and the TGI is over 100 µM.

`N#CC1C(C#N)C2(c3ccccc3)C(c3ccccc3)=NN(c3ccccc3)CC12` (stereo unspecified) returned a TGI of over 100 µM.

Take `Clc1ccc2c(NCCCCNc3nc(N4CCCCC4)nc4ccccc34)ccnc2c1`: the GI50 is 3.15 µM and the TGI amounted to 10.3 µM.

On to `O=C1/C(=C/c2ccccc2)CN(C(=O)C(Cl)(Cl)Cl)C/C1=C\c1ccccc1`, for which the TGI is 32.4 µM.

`CN(C)C(=N)c1ccccc1` gave a TGI of over 100 µM.

Compound `NNC(=O)Nc1cccnc1` displayed a TGI of over 100 µM.

`Cc1cc(C)nc(NS(=O)(=O)c2ccc(NC(=O)c3ccc(Cl)c4c(Nc5ccc(S(=O)(=O)Nc6nc(C)cc(C)n6)cc5)c5ccccc5nc34)cc2)n1`: the TGI was determined as 86.1 µM.

`CC1=C(C(=O)NCc2ccccc2)C(/C=C/c2ccccc2)C(C(=O)NCc2ccccc2)=C(C)N1` had a TGI of over 100 µM.

Consider `CCCCCN(CCCCC)CCCNc1c2c(nc3ccc(Cl)cc13)CCCC2`, for which the GI50 was 3.29 µM and the TGI came to 10.8 µM.

The test system of the next assay is CAKI-1 renal. The assay can be described thus: NCI anticancer screen, dose series, 48 h.
`O=C(O)CCc1coc2ccc(O)cc12` yielded a TGI of over 100 µM.

`Cc1ccc(N=Nc2ccc(N(CCC#N)CCC#N)cc2C)c(Br)c1` had a TGI of 24.6 µM.

Compound `CC(C)C/C(CC(=O)CCC(=O)Nc1ccccc1[N+](=O)[O-])=N\NC(=O)c1cc2ccccc2cc1O` registered a TGI of over 100 µM.

`O=C(N/C(=C\c1ccc(/C=C(\NC(=O)c2ccccc2)c2nc3cc([N+](=O)[O-])ccc3[nH]2)cc1)c1nc2cc([N+](=O)[O-])ccc2[nH]1)c1ccccc1` gave a TGI of over 100 µM.

`CCCCCCCCCCCCCCCCCC(CCCCCCCCCCCCCCCCC)OP(=O)(O)O` yielded a TGI of over 100 µM.

Turning to `COC1(OC)CCC2C1C1CCC(OC)(OC)C21` (stereo unspecified), the TGI is over 50 µM.

Regarding `CN1C(=O)C(C)(C)C2(SC(C)(C)C2(C)C)N(C)C1=S` (stereo unspecified), the TGI is over 100 µM.

For `Cc1nc2ccccc2c(N)c1-c1cc(C)c2c(C)nc3ccccc3c2n1`, the GI50 was 1.55 µM and the TGI amounted to 2.94 µM.

The compound `N#CCCN(CCC#N)c1ccc(/C=C2\N=C(c3cc([N+](=O)[O-])ccc3Cl)OC2=O)cc1` registered a TGI of over 100 µM.

As to `NC(Cc1c[nH]c2c(O)cccc12)C(=O)O` (stereo unspecified), the GI50 is over 100 µM and the TGI is over 100 µM.

With `O=C1C2C(C(=O)N1OS(=O)(=O)c1ccccc1)N(Cc1ccccc1)C(=O)N2Cc1ccccc1` (stereo unspecified), the TGI was over 100 µM.

`O=C(COc1ccc(Br)cc1Br)N1N=C(c2ccc([N+](=O)[O-])o2)CC1(O)c1ccccc1` (stereo unspecified) showed a TGI of 65.3 µM.

Consider `COc1cc(-c2nn(-c3ccc(NC(=O)c4ccc(Cl)c(C(F)(F)F)c4)cc3)cc2-c2ccncc2)ccc1Cl`, for which the GI50 was 1.71 µM and the TGI was 7.29 µM.

For `CCCCOC(=O)C1OC(O[C@H]2CCC3(C)C(CCC4(C)C3CC=C3C5CC(C)(C)CCC5(C(=O)O)CC[C@]34C)C2(C)C)C(OC2OC(CO)C(O)C(O)C2O)C(OC2OC(CO)C(O)C(O)C2O)C1O` (stereo partly specified), the GI50 is 33.4 µM and the TGI turned out to be 95.4 µM.

Consider `N#CC1C(C#N)C2(c3ccccc3)C(c3ccccc3)=NN(c3ccccc3)CC12` (stereo unspecified), for which the TGI was over 100 µM.

In turn, `CN(C)C(=N)c1ccccc1` had a TGI of over 100 µM.

In turn, `NNC(=O)Nc1cccnc1` came in with a TGI of over 100 µM.

On to `Cc1cc(C)nc(NS(=O)(=O)c2ccc(NC(=O)c3ccc(Cl)c4c(Nc5ccc(S(=O)(=O)Nc6nc(C)cc(C)n6)cc5)c5ccccc5nc34)cc2)n1`, for which the TGI was over 100 µM.

Turning to `CC1=C(C(=O)NCc2ccccc2)C(/C=C/c2ccccc2)C(C(=O)NCc2ccccc2)=C(C)N1`, the TGI was over 100 µM.

Turning to `CCCCCN(CCCCC)CCCNc1c2c(nc3ccc(Cl)cc13)CCCC2`, the GI50 was 2.18 µM and the TGI was found to be 6.83 µM.

Another assay deals with HOP-62 NSCLC. The assay can be described thus: NCI anticancer screen, dose series, 48 h.
The compound `O=C(O)CCc1coc2ccc(O)cc12` gave a TGI of over 100 µM.

`Cc1ccc(N=Nc2ccc(N(CCC#N)CCC#N)cc2C)c(Br)c1` returned a TGI of 93 µM.

`CC(C)C/C(CC(=O)CCC(=O)Nc1ccccc1[N+](=O)[O-])=N\NC(=O)c1cc2ccccc2cc1O` displayed a TGI of over 100 µM.

`O=C(N/C(=C\c1ccc(/C=C(\NC(=O)c2ccccc2)c2nc3cc([N+](=O)[O-])ccc3[nH]2)cc1)c1nc2cc([N+](=O)[O-])ccc2[nH]1)c1ccccc1` had a TGI of over 100 µM.

For `COC(CN1C(=O)c2cccc3cccc(c23)C1=O)OC`, the TGI is over 100 µM.

Take `COC1(OC)CCC2C1C1CCC(OC)(OC)C21` (stereo unspecified): the TGI is over 50 µM.

For `CN1C(=O)C(C)(C)C2(SC(C)(C)C2(C)C)N(C)C1=S` (stereo unspecified), the TGI was over 100 µM.

For the compound `COc1cc2c(cc1OC)-c1c3cc(O)ccc3nn[n+]1CC2`, the TGI was over 100 µM.

Consider `Cc1nc2ccccc2c(N)c1-c1cc(C)c2c(C)nc3ccccc3c2n1`, for which the GI50 was 1.77 µM and the TGI came out at 3.36 µM.
